Measured values taken from ChEMBL document CHEMBL1201862, “PubChem BioAssay data set” (2004).
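These data come from cells grown in 96-well plates and exposed to compound for 48 hours at five concentrations. The concentration for 50% growth inhibition is given as GI50.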 Active and inactive are the calls of the source. No stated cut-off is given here; in the data, active = GI50 up to about 1.1 µM and inactive = higher.

What was measured:
Experiment in all cases: growth of human tumour cells (NCI), 48 h
786-0 = tested on: 786-0
A498 = tested on: A498
A549 = tested on: A549
ACHN = tested on: ACHN
BT-549 = tested on: BT-549
CAKI-1 = tested on: CAKI-1
CCRF-CEM = tested on: CCRF-CEM
COLO 205 = tested on: COLO 205
DU-145 = tested on: DU-145
EKVX = tested on: EKVX
HCC 2998 = tested on: HCC 2998
HCT-116 = tested on: HCT-116
HCT-15 = tested on: HCT-15
HL-60 = tested on: HL-60
HOP-62 = tested on: HOP-62
HOP-92 = tested on: HOP-92
HT-29 = tested on: HT-29
Hs-578T = tested on: Hs-578T
IGROV-1 = tested on: IGROV-1
K562 = tested on: K562
KM12 = tested on: KM12
LOX IMVI = tested on: LOX IMVI
M14 = tested on: M14
MCF7 = tested on: MCF7
MDA-MB-231 = tested on: MDA-MB-231
MDA-MB-435 = tested on: MDA-MB-435
MDA-N = tested on: MDA-N
MOLT-4 = tested on: MOLT-4
Malme-3M = tested on: Malme-3M
NCI-H226 = tested on: NCI-H226
NCI-H23 = tested on: NCI-H23
NCI-H460 = tested on: NCI-H460
NCI-H522 = tested on: NCI-H522
NCI/ADR-RES = tested on: NCI/ADR-RES
OVCAR-3 = tested on: OVCAR-3
OVCAR-4 = tested on: OVCAR-4
OVCAR-5 = tested on: OVCAR-5
OVCAR-8 = tested on: OVCAR-8
PC-3 = tested on: PC-3
RPMI-8226 = tested on: RPMI-8226
RXF 393 = tested on: RXF 393
SF-268 = tested on: SF-268
SF-295 = tested on: SF-295
SF-539 = tested on: SF-539
SK-MEL-28 = tested on: SK-MEL-28
SK-MEL-2 = tested on: SK-MEL-2
SK-MEL-5 = tested on: SK-MEL-5
SK-OV-3 = tested on: SK-OV-3
SN12C = tested on: SN12C
SNB-19 = tested on: SNB-19
SNB-75 = tested on: SNB-75
SR = tested on: SR
SW-620 = tested on: SW-620
T47D = tested on: T47D
TK-10 = tested on: TK-10
U-251 = tested on: U-251
UACC-257 = tested on: UACC-257
UACC-62 = tested on: UACC-62
UO-31 = tested on: UO-31

Measured: GI50

CC(NC1=CC(=O)c2cccnc2C1=O)C(O)c1ccccc1 (stereo unspecified)
inactive: 786-0 2.79 µM | A498 3.62 µM | A549 1.9 µM | ACHN 2.05 µM | BT-549 1.45 µM | CAKI-1 1.32 µM | CCRF-CEM 4.02 µM | COLO 205 1.86 µM | DU-145 1.6 µM | EKVX 6.04 µM | HCC 2998 3.1 µM | HCT-116 2.22 µM | HL-60 1.85 µM | HOP-62 1.26 µM | HOP-92 9.73 µM | HT-29 2.86 µM | Hs-578T 2.53 µM | IGROV-1 1.28 µM | K562 2.23 µM | KM12 3.97 µM | M14 1.5 µM | MCF7 1.35 µM | MDA-MB-231 2.52 µM | MOLT-4 4.12 µM | Malme-3M 1.48 µM | NCI-H226 1.96 µM | NCI-H522 1.42 µM | NCI/ADR-RES 3.63 µM | OVCAR-3 1.64 µM | OVCAR-4 2.94 µM | OVCAR-5 1.79 µM | OVCAR-8 2.92 µM | PC-3 1.65 µM | RPMI-8226 2.09 µM | RXF 393 2.71 µM | SF-268 2.36 µM | SF-295 1.28 µM | SF-539 1.84 µM | SK-MEL-28 1.62 µM | SK-MEL-2 1.5 µM | SK-OV-3 2.92 µM | SN12C 1.38 µM | SNB-19 2.08 µM | SNB-75 1.35 µM | SR 2.86 µM | SW-620 1.66 µM | T47D 2.87 µM | TK-10 14.8 µM | U-251 2.78 µM | UACC-257 1.23 µM | UACC-62 1.65 µM | UO-31 2.15 µM
active: LOX IMVI 0.942 µM | MDA-MB-435 0.783 µM | MDA-N 0.57 µM | NCI-H23 1.06 µM | NCI-H460 0.733 µM | SK-MEL-5 1.09 µM
1.37 µM: HCT-15

Cc1cc(S(=O)(=O)Nc2nc(Nc3ccc4ccccc4c3)n[nH]2)c(S)cc1Cl
42.3 µM: HCT-15
inactive: 786-0 47.3 µM | A498 26.4 µM | A549 55.7 µM | ACHN 84.9 µM | BT-549 75.9 µM | CAKI-1 52.8 µM | CCRF-CEM > 100 µM | COLO 205 57.8 µM | DU-145 54.3 µM | EKVX > 100 µM | HCC 2998 61.4 µM | HCT-116 41.5 µM | HL-60 > 100 µM | HOP-62 28.1 µM | HOP-92 52.5 µM | HT-29 > 100 µM | Hs-578T 22.2 µM | IGROV-1 52.8 µM | K562 > 100 µM | KM12 25.4 µM | LOX IMVI 45.6 µM | M14 46.8 µM | MCF7 74.8 µM | MDA-MB-231 92.9 µM | MDA-MB-435 24.9 µM | MDA-N 13.7 µM | MOLT-4 > 100 µM | Malme-3M 89.7 µM | NCI-H226 34.1 µM | NCI-H23 43 µM | NCI-H460 34.8 µM | NCI-H522 30.3 µM | NCI/ADR-RES > 100 µM | OVCAR-3 23.2 µM | OVCAR-4 79.1 µM | OVCAR-5 73.8 µM | OVCAR-8 64.3 µM | PC-3 33.6 µM | RPMI-8226 > 100 µM | RXF 393 75.2 µM | SF-268 72.1 µM | SF-295 30.2 µM | SF-539 14 µM | SK-MEL-28 > 100 µM | SK-MEL-2 24 µM | SK-MEL-5 22.5 µM | SK-OV-3 46.2 µM | SN12C 48.2 µM | SNB-19 49.3 µM | SNB-75 43.3 µM | SR > 100 µM | SW-620 44.7 µM | T47D 63.7 µM | TK-10 > 100 µM | U-251 39.9 µM | UACC-257 34.3 µM | UACC-62 66.4 µM | UO-31 > 100 µM

CCN(CC)CCSc1c2cc(OC)ccc2nc2ccc(OC)cc12
inactive: 786-0 1.85 µM | A498 23 µM | A549 16.1 µM | ACHN 2.21 µM | BT-549 5.69 µM | CAKI-1 7.53 µM | CCRF-CEM 2.86 µM | COLO 205 1.98 µM | DU-145 2.05 µM | EKVX 9.59 µM | HCC 2998 13.5 µM | HCT-116 2.26 µM | HL-60 5.3 µM | HOP-62 16.7 µM | HOP-92 2.19 µM | HT-29 2.05 µM | Hs-578T 1.68 µM | IGROV-1 1.95 µM | KM12 5.09 µM | LOX IMVI 2.17 µM | M14 6.73 µM | MCF7 2.51 µM | MDA-MB-231 6.53 µM | MDA-MB-435 7.03 µM | MDA-N 4.39 µM | MOLT-4 2.29 µM | Malme-3M 2.75 µM | NCI-H226 16.2 µM | NCI-H23 3.3 µM | NCI-H460 9.75 µM | NCI-H522 1.59 µM | NCI/ADR-RES 7.67 µM | OVCAR-3 2.59 µM | OVCAR-4 6.03 µM | OVCAR-5 15.8 µM | OVCAR-8 3.12 µM | PC-3 3.56 µM | RPMI-8226 2.4 µM | RXF 393 7.38 µM | SF-268 3.08 µM | SF-295 19.4 µM | SF-539 2.45 µM | SK-MEL-28 10.3 µM | SK-MEL-2 17 µM | SK-MEL-5 13.6 µM | SK-OV-3 25.1 µM | SN12C 3.03 µM | SNB-19 12.1 µM | SNB-75 14.4 µM | SR 2.43 µM | SW-620 2.56 µM | T47D 1.93 µM | TK-10 4.65 µM | U-251 7.94 µM | UACC-257 4.35 µM | UACC-62 14.3 µM | UO-31 2.37 µM
2.86 µM: HCT-15
